Columns and labels:
β2AR-T4L [1] = details: for λmax ± SD for β2AR-T4L: bimane emission, excitation 350 nm, saturating ligand; for λmax ± SD for β2AR-T4L / Intensity at λmax Ligand/Intensity at λmax none, β2AR-T4L: 15 min incubation; for Intensity at λmax Ligand/Intensity at λmax none, β2AR-T4L: bimane fluorescence, ratio to no-ligand control
[2] = molecular target: β2AR Val114^3.33 to alanine mutant (Homo sapiens, UniProt P07550, V114A); details: Chelikani et al. 2007; cited from earlier work
wild-type β2AR = wild-type β2AR (Homo sapiens, UniProt P07550); assay: Saturation binding of [3H]DHA to membranes from Sf9 cells expressing wild-type β2AR
β2AR-T4L [3] = assay: Saturation binding of [3H]DHA to membranes from Sf9 cells expressing β2AR-T4L; design: species or system human
Method: FIG. 15. Affinity curves for adrenergic ligands binding to β2AR-T4L and wildtype β2AR. […] Binding experiments on membranes isolated from Sf9 insect cells expressing the receptors were performed as described above.
Membrane preparation from baculovirus-infected Sf9 cells was performed as described previously (Swaminath, et al., Mol Pharmacol 61, 65 (2002)). For each binding reaction, membranes containing 0.7 μg total membrane protein were used. Saturation binding of [^3H]-dihydroalprenolol (DHA) was measured by incubating membranes resuspended in 500 μl binding buffer (75 mM Tris, 12.5 mM MgCl2, 1 mM EDTA, pH 7.4, supplemented with 0.4 mg/ml BSA) with 12 different concentrations of [^3H]DHA (Perkin Elmer) between 20 pM and 10 nM. After 1 h incubation with shaking at 230 rpm, membranes were filtered from the binding reactions with a Brandel harvester, washed with binding buffer, and measured for bound [^3H]DHA with a Beckman LS6000 scintillation counter. […] For competition binding, membranes resuspended in 500 μl binding buffer were incubated with 0.5 nM [^3H]DHA plus increasing concentrations of the competing ligand (all compounds were purchased from Sigma). […] Each data point in the curves in FIGS. 2A and S1 represents the mean of three separate experiments, each done in triplicate. Binding data were analyzed by nonlinear regression analysis using Graphpad Prism.

Row | Structure (SMILES) | ligand-induced change of bimane fluorescence (in words), β2AR-T4L (β2AR-T4L [1]) | λmax ± SD for β2AR-T4L (β2AR-T4L [1]) | Intensity at λmax Ligand/Intensity at λmax none, β2AR-T4L (β2AR-T4L [1]) | other results
1 | CC(C)(C)NCC(O)c1ccc(O)c(CO)c1 (centres unmarked) [salbutamol] | larger responses | 449 ± 1 nm | 0.928 ± 0.009 | –
2 | CC(C)NC[C@H](O)c1ccc(O)c(O)c1 [(−)-isoproteronol, (−)-isoproterenol] | qualitatively similar decrease in intensity and rightward shift in λmax | 455 ± 2 nm | 0.824 ± 0.006 | –
3 | CNC[C@H](O)c1ccc(O)c(O)c1 [(−)-epinephrine] | – | – | – | lowering of affinity by Val114 to alanine mutation [2]: 300 fold
4 | CCCc1ccccc1OCC(O)CNC(C)C (centres unmarked) [[^3H]DHA, [^3H]-dihydroalprenolol] | – | – | – | Bmax (wild-type β2AR): 30.0 ± 0.5 pmol/mg; Kd (wild-type β2AR; read-out: Kd ± SE): 0.161 ± 0.012 nM; affinity for β2AR-T4L relative to wild-type β2AR (saturation binding) (β2AR-T4L [3]): wild-type affinity; Kd (β2AR-T4L [3]; saturation binding, β2AR-T4L, Sf9 membranes, read-out: Kd ± SE): 0.18 ± 0.016 nM

Source: US8252899B2, “Methods and compositions for obtaining high-resolution crystals of membrane proteins” (The Scripps Research Institute, priority 2007, dated 2012)
